# According to patent US20090182020A1, “SUBSTITUTED BIS(HETERO)AROMATIC N--ETHYLPROPIOLAMIDES AND USE THEREOF FOR PRODUCTION OF MEDICAMENTS” (GRUNENTHAL GMBH, priority 2005, published 2009):
# Target: T1, mGluR5 receptor (pig) (Sus scrofa, UniProt I3LUI7)
# T1 construct: 450 μg protein from brain homogenate is incubated with 5 nM ^3[H]-MPEP; from tissue; host or cells: pig brain halves without medulla, cerebellum and pons
# Test: [3H]-MPEP bond in the mGluR5 receptor bond assay (pig brain homogenate)
# Type: binding
# Settings: 5 nM [3H]-MPEP; pig brain homogenate
# Protocol: I. Method for Determining the Inhibition of the [^3H]-MPEP Bond in the mGluR5 Receptor Bond Assay
# Pig brain homogenate is produced by homogenisation (Polytron PT 3000, Kinematica AG, 10,000 rpm for 90 seconds) of pig brain halves without medulla, cerebellum and pons in buffer pH 8.0 (30 mM Hepes, Sigma, order no. H3375+1 tablet complete to 100 ml, Roche Diagnostics, order no. 1836145) in the ratio 1:20 (brain weight/volume) and differential centrifugation at 900×g and 40,000×g. In each case, 450 μg protein from brain homogenate is incubated with 5 nM ^3[H]-MPEP (Tocris, order no. […]
# Thereafter, the batches are filtered with the help of a Brandel Cell Harvester (Brandel, TYP Robotic 9600) on unifilter plates with glass fibre filter mats (Perkin Elmer, order no. 6005177) and subsequently washed with buffer (as above) 3 times with in each case 250 μl per sample. The filter plates are subsequently dried for 60 min at 55° C. 30 μL Ultima Gold™ scintillator (Packard BioScience, order no. 6013159) is subsequently added per well and the samples are measured after 3 hours on the β-counter (Mikrobeta, Perkin Elmer). The unspecific bond is determined by addition of 10 μM MPEP (Tocris, order no. 1212).
# T1 sequence (I3LUI7 19-1212): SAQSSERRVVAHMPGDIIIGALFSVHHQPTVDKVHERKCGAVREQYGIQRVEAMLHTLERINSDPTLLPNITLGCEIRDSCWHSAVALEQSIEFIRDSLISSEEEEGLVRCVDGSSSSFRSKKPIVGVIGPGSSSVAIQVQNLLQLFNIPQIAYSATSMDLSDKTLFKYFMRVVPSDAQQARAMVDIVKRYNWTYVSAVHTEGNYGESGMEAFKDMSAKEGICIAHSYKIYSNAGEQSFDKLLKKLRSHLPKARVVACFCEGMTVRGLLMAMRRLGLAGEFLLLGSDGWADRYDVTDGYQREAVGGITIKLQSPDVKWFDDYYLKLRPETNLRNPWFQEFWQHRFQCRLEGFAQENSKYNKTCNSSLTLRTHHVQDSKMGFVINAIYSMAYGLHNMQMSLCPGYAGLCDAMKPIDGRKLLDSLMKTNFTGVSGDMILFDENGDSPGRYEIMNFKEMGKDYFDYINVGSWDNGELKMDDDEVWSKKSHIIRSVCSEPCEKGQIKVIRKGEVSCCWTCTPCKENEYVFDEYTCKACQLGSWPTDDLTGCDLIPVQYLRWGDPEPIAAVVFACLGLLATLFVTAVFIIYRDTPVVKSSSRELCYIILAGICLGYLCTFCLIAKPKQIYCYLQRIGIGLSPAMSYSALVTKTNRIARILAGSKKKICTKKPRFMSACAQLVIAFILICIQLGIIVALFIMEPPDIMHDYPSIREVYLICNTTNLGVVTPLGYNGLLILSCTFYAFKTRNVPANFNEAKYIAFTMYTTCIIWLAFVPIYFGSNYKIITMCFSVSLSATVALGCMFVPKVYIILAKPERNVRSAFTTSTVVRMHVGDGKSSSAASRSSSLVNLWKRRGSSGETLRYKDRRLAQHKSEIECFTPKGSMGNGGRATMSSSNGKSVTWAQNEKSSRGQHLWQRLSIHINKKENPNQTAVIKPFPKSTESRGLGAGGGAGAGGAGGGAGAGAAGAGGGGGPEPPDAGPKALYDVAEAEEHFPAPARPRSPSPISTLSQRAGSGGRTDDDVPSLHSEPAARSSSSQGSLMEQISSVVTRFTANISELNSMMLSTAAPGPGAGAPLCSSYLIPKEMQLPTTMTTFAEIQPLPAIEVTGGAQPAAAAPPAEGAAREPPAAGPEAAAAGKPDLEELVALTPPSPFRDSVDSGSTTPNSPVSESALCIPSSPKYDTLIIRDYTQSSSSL
row,IC50 [nM],Compound
1,190,"O=C(C#Cc1cccc(Cl)c1)NCCn1cccc1 [Example 230, N-(2-(1H-pyrrol-1-yl)ethyl)-3-(3-chlorophenyl)propiolamide]"
2,34,"O=C(C#Cc1cccc(Cl)c1)NCCc1ccccn1 [Example 3, 3-(3-chlorophenyl)-N-(2-(pyridine-2-yl)ethyl)propiolamide]"
3,28,"CN(CCc1ccccc1C(F)(F)F)C(=O)C#Cc1cccc(Cl)c1 [Example 251, 3-(3-chlorophenyl)-N-methyl-N-(2-(trifluormethyl)phenethyl)propiolamide]"
4,29,"CN(CCc1ccccn1)C(=O)C#Cc1cccc(Cl)c1 [Example 236, 3-(3-chlorophenyl)-N-methyl-N-(2-(pyridine-2-yl)ethyl)propiolamide]"
5,210,"Cc1ccc(CCNC(=O)C#Cc2cccc(Cl)c2)cc1 [Example 225, 3-(3-chlorophenyl)-N-(4-methylphenethyl)propiolamide]"

# More lines, now with the values behind:
row,Compound,IC50 [nM]
1,"O=C(C#Cc1cccc(Cl)c1)NCCc1cccnc1 [Example 235, 3-(3-chlorophenyl)-N-(2-(pyridine-3-yl)ethyl)propiolamide]",7
2,"CN(CCc1ccncc1)C(=O)C#Cc1cccc(Cl)c1 [Example 244, 3-(3-chlorophenyl)-N-methyl-N-(2-(pyridine-4-yl)ethyl)propiolamide]",23
3,"COc1ccccc1CCN(C)C(=O)C#Cc1cccc(Cl)c1 [Example 240, 3-(3-chlorophenyl)-N-(2-methoxyphenethyl)-N-methylpropiolamide]",12
4,"CN(CCc1cccc(C(F)(F)F)c1)C(=O)C#Cc1cccc(Cl)c1 [Example 222, 3-(3-chlorophenyl)-N-methyl-N-(3-(trifluoromethyl)phenethyl)propiolamide]",75
5,"O=C(C#Cc1cccc(Cl)c1)NCCc1ccccc1F [Example 215, 3-(3-chlorophenyl)-N-(2-fluorophenethyl)propiolamide]",9
6,"Cc1ncccc1CCN(C)C(=O)C#Cc1cccc(Cl)c1 [Example 249, 3-(3-chlorophenyl)-N-methyl-N-(2-(2-methylpyridine-3-yl)ethyl)propiolamide]",120
7,"O=C(C#Cc1cccc(Cl)c1)NCCc1ccc(F)cc1 [Example 217, 3-(3-chlorophenyl)-N-(4-fluorophenethyl)propiolamide]",140
8,"CC(Cc1cccnc1)NC(=O)C#Cc1cccc(Cl)c1 (stereo not drawn) [Example 246, 3-(3-chlorophenyl)-N-(1-(pyridine-3-yl)propane-2-yl)propiolamide]",10
9,"Cc1cccc(CCN(C)C(=O)C#Cc2cccc(Cl)c2)c1 [Example 227, 3-(3-chlorophenyl)-N-methyl-N-(3-methylphenethyl)propiolamide]",15
10,"O=C(C#Cc1cccc(Cl)c1)N(CCc1ccccc1)C1CC1 [Example 239, 3-(3-chlorophenyl)-N-cyclopropyl-N-phenethylpropiolamide]",280
11,"O=C(C#Cc1cccc(Cl)c1)NCCc1ccncc1 [Example 4, 3-(3-chlorophenyl)-N-(2-(pyridine-4-yl)ethyl)propiolamide]",2000
12,"Cc1ncccc1CCNC(=O)C#Cc1cccc(Cl)c1 [Example 248, 3-(3-chlorophenyl)-N-(2-(2-methylpyridine-3-yl)ethyl)propiolamide]",260

# Same assay, conditions: 10 μM test compound; 5 nM [3H]-MPEP; 450 μg protein pig brain homogenate; 60 min room temperature
row,inhibition at 10 µM [%],Compound
1,89,"N#Cc1cccc(C#CC(=O)NCCc2ccc(F)cc2)c1 [Example 99, 3-(3-cyanophenyl)-N-(4-fluorophenethyl)propiolamide]"
2,36,"O=C(C#Cc1ccc2[nH]ccc2c1)NCCc1ccccn1 [Example 38, 3-(1H-indol-5-yl)-N-(2-(pyridine-2-yl)ethyl)propiolamide]"
3,90,"O=C(C#Cc1ccccc1)NCCc1ccc(F)cc1 [Example 68, N-(4-fluorophenethyl)-3-phenylpropiolamide]"
4,86,"N#Cc1cccc(C#CC(=O)NCCc2ccccc2)c1 [Example 86, 3-(3-cyanophenyl)-N-phenethylpropiolamide]"
5,77,"COc1ccccc1CCNC(=O)C#Cc1ccc(F)c(C)c1 [Example 134, 3-(4-fluoro-3-methylphenyl)-N-(2-methoxyphenethyl)propiolamide]"
6,82,"Cc1cc(C#CC(=O)NCCc2ccccn2)ccc1F [Example 7, 3-(4-fluoro-3-methylphenyl)-N-(2-(pyridine-2-yl)ethyl)propiolamide]"
7,84,"N#Cc1cccc(C#CC(=O)NCCc2ccc(Cl)c(Cl)c2)c1 [Example 104, 3-(3-cyanophenyl)-N-(3,4-dichlorophenethyl)propiolamide]"

# The remaining lines, values behind:
row,Compound,inhibition at 10 µM [%]
1,"O=C(C#Cc1ccc(F)cc1)NCCc1ccc(F)cc1 [Example 92, N-(4-fluorophenethyl)-3-(4-fluorophenyl)propiolamide]",42
2,"O=C(C#Cc1cccc(Cl)c1)NCCc1cccc(Cl)c1 [Example 93, N-(3-chlorophenethyl)-3-(3-chlorophenyl)propiolamide]",89
3,"Cc1cc(C#CC(=O)NCCc2ccc(Cl)cc2)ccc1F [Example 135, N-(4-chlorophenethyl)-3-(4-fluoro-3-methylphenyl)propiolamide]",44
4,"O=C(C#Cc1cccs1)NCCc1ccc(Cl)c(Cl)c1 [Example 103, N-(3,4-dichlorophenethyl)-3-(thiophene-2-yl)propiolamide]",88
5,"Cc1cccc(C#CC(=O)NCCc2ccccc2)c1 [Example 84, N-phenethyl-3-m-tolylpropiolamide]",89
6,"CN(CCc1ccccc1)C(=O)C#Cc1ccccc1C#N [Example 55, 3-(2-cyanophenyl)-N-methyl-N-phenethylpropiolamide]",40
7,"N#Cc1cccc(C#CC(=O)NCCc2ccc(Cl)cc2)c1 [Example 192, N-(4-chlorophenethyl)-3-(3-cyanophenyl)propiolamide]",91
8,"O=C(C#Cc1ccccc1F)NCCc1cccc(Cl)c1 [Example 148, N-(3-chlorophenethyl)-3-(2-fluorophenyl)propiolamide]",79
9,"O=C(C#Cc1ccccc1)NCCc1ccccn1 [Example 11, 3-phenyl-N-(2-(pyridine-2-yl)ethyl)propiolamide]",81
10,"COc1cccc(C#CC(=O)NCCc2ccc(F)cc2)c1 [Example 61, N-(4-fluorophenethyl)-3-(3-methoxyphenyl)propiolamide]",85
11,"O=C(C#Cc1ccccc1F)NCCc1ccc(F)cc1 [Example 151, N-(4-fluorophenethyl)-3-(2-fluorophenyl)propiolamide]",66
12,"COc1ccccc1CCNC(=O)C#Cc1ccccc1 [Example 136, N-(2-methoxyphenethyl)-3-phenylpropiolamide]",110
13,"N#Cc1cccc(C#CC(=O)NCC(c2ccccc2)c2ccccc2)c1 [Example 98, 3-(3-cyanophenyl)-N-(2,2-diphenylethyl)propiolamide]",40
14,"O=C(C#Cc1ccccc1F)NCCc1ccccn1 [Example 8, 3-(2-fluorophenyl)-N-(2-(pyridine-2-yl)ethyl)propiolamide]",70
15,"Cc1cc(C#CC(=O)NCCc2cccs2)ccc1F [Example 56, 3-(4-fluoro-3-methylphenyl)-N-(2-(thiophene-2-yl)ethyl)propiolamide]",54
